The source of these data is patent US20100125081A1, “NEW COMPOUNDS 574” (ASTRAZENECA AB, priority 2008, published 2010).

The experiment has as its target T1, human β-Secretase (Homo sapiens, UniProt P56817).
T1 construct: soluble part of the human β-Secretase (AA 1-AA 460); Fc domain of IgG1 (C); made in house
In words: TR-FRET assay (β-secretase enzyme, sBACE-Fc). Format: biochemical. As to conditions: soluble human β-secretase (AA 1-460) Fc fusion, substrate (Europium)CEVNLDAEFK(Qsy7) 100 nM, pH 4.5; unit inferred, nM taken. As to the method: The β-secretase enzyme used in the TR-FRET is prepared as follows:
The cDNA for the soluble part of the human β-Secretase (AA 1-AA 460) was cloned using the ASP2-Fc10-1-IRES-GFP-neoK mammalian expression vector. The gene was fused to the Fc domain of IgG1 (affinity tag) and stably cloned into HEK 293 cells.
The enzyme (truncated form) was diluted to 6 μg/mL (stock 1.3 mg/mL) and the substrate (Europium)CEVNLDAEFK(Qsy7) to 200 nM (stock 120 μM) in reaction buffer (NaAcetate, chaps, triton x-100, EDTA pH4.5). The robotic systems Biomek FX and Velocity 11 were used for all liquid handling and the enzyme and substrate solutions were kept on ice until they were placed in the robotic system. Enzyme (9 μl) was added to the plate then 1 μl of compound in dimethylsulphoxide was added, mixed and pre-incubated for 10 minutes. Substrate (10 μl) was then added, mixed and the reaction proceeded for 15 minutes at room temperature. The reaction was stopped with the addition of Stop solution (7 μl, NaAcetate, pH 9). The fluorescence of the product was measured on a Victor II plate reader with an excitation wavelength of 340 nm and an emission wavelength of 615 nm. The assay was performed in a Costar 384 well round bottom, low volume, non-binding surface plate (Corning #3676). The final concentration of the enzyme was 2.7 μg/ml; the final concentration of substrate was 100 nM (Km of ˜250 nM). The dimethylsulphoxide control, instead of test compound, defined the 100% activity level and 0% activity was defined by wells lacking enzyme (replaced with reaction buffer).

T1 sequence (P56817 22-460): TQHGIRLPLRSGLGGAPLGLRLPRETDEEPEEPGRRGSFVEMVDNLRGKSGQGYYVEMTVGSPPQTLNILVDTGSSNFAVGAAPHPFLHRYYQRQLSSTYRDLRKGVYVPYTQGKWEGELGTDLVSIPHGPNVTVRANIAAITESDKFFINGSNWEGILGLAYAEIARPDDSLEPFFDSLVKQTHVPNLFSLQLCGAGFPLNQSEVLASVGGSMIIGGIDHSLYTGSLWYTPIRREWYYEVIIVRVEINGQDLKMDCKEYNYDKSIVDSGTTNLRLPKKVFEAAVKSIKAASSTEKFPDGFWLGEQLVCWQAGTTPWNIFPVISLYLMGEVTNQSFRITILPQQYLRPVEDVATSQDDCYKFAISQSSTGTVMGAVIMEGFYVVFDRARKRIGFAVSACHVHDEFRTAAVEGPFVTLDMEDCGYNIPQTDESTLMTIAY

`Cc1cc(C2(c3ccccc3)N=C(N)c3ncccc32)cc(C2CC2)c1OC(F)F` (centres unmarked) [Example 31, 5-[3-Cyclopropyl-4-(difluoromethoxy)-5-methyl-phenyl]-5-phenyl-pyrrolo[3,4-b]pyridin-7-amine]: the IC50 amounted to 815 nM.

For `Cc1cc(C2(c3cccc(C#N)c3)N=C(N)c3ncccc32)cc(C2CC2)c1OC(F)F` (centres unmarked) [Example 32, 3-[7-Amino-5-(3-cyclopropyl-4-difluoromethoxy-5-methyl-phenyl)-5H-pyrrolo[3,4-b]pyridin-5-yl]-benzonitrile], it took 61 nM to reach half-maximal inhibition (IC50).

In turn, `COc1ccc(C2(c3cccc(-c4cncnc4)c3)N=C(N)c3ncccc32)cc1C1CC1` (centres unmarked) [Example 33, 5-(3-Cyclopropyl-4-methoxy-phenyl)-5-(3-pyrimidin-5-yl-phenyl)-5H-pyrrolo[3,4-b]pyridin-7-ylamine] registered an IC50 of 222 nM. This IC50 lies about 3.6-fold higher than the previous one.

Consider `NC1=NC(c2cccc(-c3cncnc3)c2)(c2ccc(OC(F)F)c(CCF)c2)c2cccnc21` (centres unmarked) [Example 34, 5-[4-Difluoromethoxy-3-(2-fluoro-ethyl)-phenyl]-5-(3-pyrimidin-5-yl-phenyl)-5H-pyrrolo[3,4-b]pyridin-7-ylamine], for which it took 30 nM to reach half-maximal inhibition (IC50).

The compound `COc1c(C)cc(C2(c3cccc(-c4cncnc4)c3)N=C(N)c3ncccc32)nc1C` (centres unmarked) [Example 35, 5-(5-Methoxy-4,6-dimethyl-pyridin-2-yl)-5-(3-pyrimidin-5-yl-phenyl)-5H-pyrrolo[3,4-b]pyridin-7-ylamine] had an IC50 of 125 nM.

Consider `COc1c(C)cc(C2(c3cccc(-c4cncnc4)c3)N=C(N)c3ncccc32)cc1F` (centres unmarked) [Example 36, 5-(3-Fluoro-4-methoxy-5-methylphenyl)-5-(3-(pyrimidin-5-yl)phenyl)-5H-pyrrolo[3,4-b]pyridin-7-amine], for which the IC50 came to 41 nM.

`COc1ccc(F)c(-c2cc(C3(c4ccnc(C(F)(F)F)c4)N=C(N)c4ncccc43)ccc2O)c1` (centres unmarked) [Example 37, 5-(7-Amino-5-(2-(trifluoromethyl)pyridin-4-yl)-5H-pyrrolo[3,4-b]pyridin-5-yl)-2′-fluoro-5′-methoxybiphenyl-2-ol] displayed an IC50 of 206 nM.

`NC1=NC(c2ccnc(C(F)(F)F)c2)(c2ccc(O)c(-c3ccccc3F)c2)c2cccnc21` (centres unmarked) [Example 38, 5-(7-Amino-5-(2-(trifluoromethyl)pyridin-4-yl)-5H-pyrrolo[3,4-b]pyridin-5-yl)-2′-fluorobiphenyl-2-ol] showed an IC50 of 658 nM. Compared with the last compound, the IC50 is about 3.2-fold higher.
